In patent publication US4100346A, “Certain 7(o-amino-methyl- or methylaminomethylphenyl- or cyclohexadienyl- or thienylacetamide)-3[1-carboxymethyl-(or ethyl- or propyl-)-tetrazol-5-ylthiomethyl]-3-cephem-4-carboxylic acids” (Bristol-Myers Company, priority 1976, dated 1978):
≈ marks a conversion by molar mass, not a printed value. Like-named read-outs stand apart in the source and are kept apart here.

Experiments:
[1] = system: Clostridium sp.; assay: microbe, parasite or virus in culture; assay type: cell-based; details: read-out: Minimum inhibitory concentration
Experimental: Antibiotic spectrum. […] Procedures were as follows:
c. Obligate anaerobes. The assay was performed on solid medium, consisting of Brain Heart Infusion Broth (BBL) supplemented with 5% defibrinated sheep blood and 1% Ionagar (Colab).

[2] = target: β-lactamase Class I Type a, Enterobacter cloacae 214 (Enterobacter cloacae, UniProt P05364); assay type: biochemical
Experimental: (§1) Miscellaneous. Methods for determining bactericidal activity and susceptibility to cell-free β-lactamase were those previously used; Leitner et al., BL-S640, A Cephalosporin With a Broad Spectrum of Antibacterial Activity: Properties in vitro, Antimicrob. Agents Chemother.
(§2) Susceptibility to β-lactamase. Susceptibility to enzymic hydrolysis was assessed by determining relative rates of hydrolysis by cell-free preparations of various β-lactamases (Table 6).

[3] = target: β-lactamase Class I Type b, Escherichia coli 719 (Escherichia coli, UniProt P00811); assay type: biochemical
Experimental: as §1, §2

[4] = system: β-lactamase Class II Type a, Proteus mirabilis 1266; assay type: biochemical
Experimental: as §1, §2

[5] = target: T1, β-lactamase Class III Type a, Escherichia coli TEM (Escherichia coli, UniProt P62593); assay type: biochemical
T1 construct: cell-free preparations of various β-lactamases; endogenous in cells; host or cells: Escherichia coli strain TEM
Experimental: as §1, §2

[6] = system: β-lactamase Class IV Type a, Klebsiella pneumoniae 53; assay type: biochemical
Experimental: as §1, §2

[7] = system: β-lactamase Class IV Type b, Klebsiella pneumoniae 1169; assay type: biochemical
Experimental: as §1, §2

[8] = target: staphylococcal β-lactamase, Staphylococcus aureus A9606 (Staphylococcus aureus, UniProt P00807); assay: Hydrolysis by β-lactamase in cell-free extracts; assay type: biochemical; details: cell-free extract
Experimental: Miscellaneous. Methods for determining bactericidal activity and susceptibility to cell-free β-lactamase were those previously used; Leitner et al., BL-S640, A Cephalosporin With a Broad Spectrum of Antibacterial Activity: Properties in vitro, Antimicrob. Agents Chemother. 7:298-305 (1975).
Susceptibility to β-lactamase. Susceptibility to enzymic hydrolysis was assessed by determining relative rates of hydrolysis by cell-free preparations of various β-lactamases (Table 6). BL-S786 was slightly to markedly less susceptible than the other cephalosporins to hydrolysis by β-lactamases of Type Ia, Ib, IIIa and IVa. All cephalosporins were poor substrates for Type IIa and staphylococcal β-lactamases. The four cephalosporins were hydrolyzed at similar rates by the Type IVb enzyme.

[9] = system: Citrobacter sp.; assay: Intramuscular treatment of systemically infected mice; assay type: in vivo; details: im, Citrobacter sp. strain 1, challenge 5×10^6 -2×10^7, treated 1 and 3.5 hours after infection, read-out: PD50 /treatment
[10] = system: Proteus mirabilis; assay: as above; assay type: in vivo; details: im, 3.5 h, read-out: PD50 /treatment
[11] = system: Proteus rettgeri; assay: as above; assay type: in vivo; details: Providencia rettgeri, im, Proteus rettgeri strain 4, challenge 2×10^6 -3×10^6, treated 1 and 3.5 hours after infection, read-out: PD50 /treatment
[12] = system: Enterobacter cloacae; assay: as above; assay type: in vivo; details: im; for ED50: Enterobacter cloacae, 3.5 h, read-out: PD50 /treatment
Source text: Treatment of Systemically Infected Mice. The procedures were identical with those published previously [Leitner et al., BL-S640, a Cephalosporin With a Broad Spectrum of Antibacterial Activity: Bioavailability and Therapeutic Properties in Rodents, Antimicrob. Agents Chemother.
(a) the hog gastric mucin used in infections with Staphylococcus aureus No. 2 was purchased from American Laboratories, Inc., Omaha, Neb.

[13] = system: Edwardsiella tarda; assay: Growth inhibitory activity, antibiotic dilution technique; details: read-out: Minimum inhibitory concentration
[14] = system: Citrobacter sp.; assay: as above
[15] = system: Pseudomonas aeruginosa; assay: as above; details: read-out: Minimum inhibitory concentration
[16] = system: Bordetella bronchiseptica; assay: as above; details: read-out: Minimum inhibitory concentration
[17] = system: Proteus rettgeri; assay: as above
[18] = system: Enterobacter aerogenes; assay: Effect of inoculum size on susceptibility of Enterobacteriaceae; details: Klebsiella aerogenes, read-out: Minimum Inhibitory Concentration, Enterobacter aerogenes strain 1
[19] = system: Proteus mirabilis; assay: as above
[20] = system: Proteus vulgaris; assay: as above
[21] = Proteus mirabilis strain 1, challenge 7×10^6 -9×10^6, treated 1 and 3.5 hours after infection
[22] = Proteus mirabilis strain 5, challenge 9×10^5 -3×10^6, treated 1 and 3.5 hours after infection
[23] = Proteus mirabilis strain 8, challenge 6×10^5 -4×10^6, treated 1 and 3.5 hours after infection
[24] = read-out: Minimum inhibitory concentration, Citrobacter sp., 1 strain
[25] = read-out: Minimum inhibitory concentration, Citrobacter sp., 4 strains, geometric mean when applicable
[26] = read-out: Minimum Inhibitory Concentration, Proteus mirabilis strain 1, A, Inoculum of 10^2 organisms
[27] = read-out: Minimum Inhibitory Concentration, Proteus mirabilis strain 1, B, Inoculum of 10^6 organisms
[28] = read-out: Minimum Inhibitory Concentration, Proteus mirabilis strain 2, A, Inoculum of 10^2 organisms
[29] = read-out: Minimum Inhibitory Concentration, Proteus mirabilis strain 2, B, Inoculum of 10^6 organisms
[30] = read-out: Minimum Inhibitory Concentration, Proteus mirabilis strain 3, A, Inoculum of 10^2 organisms
[31] = read-out: Minimum Inhibitory Concentration, Proteus mirabilis strain 3, B, Inoculum of 10^6 organisms
[32] = read-out: Minimum Inhibitory Concentration, Proteus mirabilis strain 4, A, Inoculum of 10^2 organisms
[33] = read-out: Minimum Inhibitory Concentration, Proteus mirabilis strain 4, B, Inoculum of 10^6 organisms
[34] = read-out: Minimum Inhibitory Concentration, Proteus mirabilis strain 5, A, Inoculum of 10^2 organisms
[35] = read-out: Minimum Inhibitory Concentration, Proteus mirabilis strain 5, B, Inoculum of 10^6 organisms
[36] = read-out: Minimum Inhibitory Concentration, Proteus vulgaris strain 1, A, Inoculum of 10^2 organisms
[37] = read-out: Minimum Inhibitory Concentration, Proteus vulgaris strain 1, B, Inoculum of 10^6 organisms
[38] = read-out: Minimum Inhibitory Concentration, Proteus vulgaris strain 2, A, Inoculum of 10^2 organisms
[39] = read-out: Minimum Inhibitory Concentration, Proteus vulgaris strain 2, B, Inoculum of 10^6 organisms
[40] = read-out: Minimum Inhibitory Concentration, Proteus vulgaris strain 4, A, Inoculum of 10^2 organisms
[41] = read-out: Minimum Inhibitory Concentration, Proteus vulgaris strain 4, B, Inoculum of 10^6 organisms

Chain of staphylococcal β-lactamase, Staphylococcus aureus A9606 (P00807 25-281): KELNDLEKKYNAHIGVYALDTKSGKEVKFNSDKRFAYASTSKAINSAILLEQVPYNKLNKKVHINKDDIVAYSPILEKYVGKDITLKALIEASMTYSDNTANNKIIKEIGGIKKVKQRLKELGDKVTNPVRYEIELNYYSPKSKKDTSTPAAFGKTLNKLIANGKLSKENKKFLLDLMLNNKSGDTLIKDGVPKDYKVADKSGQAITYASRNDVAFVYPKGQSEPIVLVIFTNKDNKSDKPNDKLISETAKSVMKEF
Chain of β-lactamase Class I Type a, Enterobacter cloacae 214 (P05364 21-381): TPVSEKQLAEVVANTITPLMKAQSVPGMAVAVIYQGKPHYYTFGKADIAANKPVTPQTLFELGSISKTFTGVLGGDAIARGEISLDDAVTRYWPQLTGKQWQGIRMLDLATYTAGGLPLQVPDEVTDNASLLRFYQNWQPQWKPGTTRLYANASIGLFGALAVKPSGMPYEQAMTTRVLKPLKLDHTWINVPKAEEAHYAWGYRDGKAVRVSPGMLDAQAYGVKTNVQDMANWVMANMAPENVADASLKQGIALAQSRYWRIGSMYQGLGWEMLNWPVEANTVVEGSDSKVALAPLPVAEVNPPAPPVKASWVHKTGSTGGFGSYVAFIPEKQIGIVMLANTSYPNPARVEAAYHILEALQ
T1 sequence (P62593 24-286 limits assumed): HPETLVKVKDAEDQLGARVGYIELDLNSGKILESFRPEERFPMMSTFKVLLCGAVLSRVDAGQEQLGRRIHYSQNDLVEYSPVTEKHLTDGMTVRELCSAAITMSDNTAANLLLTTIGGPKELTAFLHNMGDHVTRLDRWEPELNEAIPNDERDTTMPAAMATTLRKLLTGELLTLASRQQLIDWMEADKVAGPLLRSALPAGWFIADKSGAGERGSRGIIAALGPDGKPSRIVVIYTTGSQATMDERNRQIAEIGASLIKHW
Chain of β-lactamase Class I Type b, Escherichia coli 719 (P00811 20-377): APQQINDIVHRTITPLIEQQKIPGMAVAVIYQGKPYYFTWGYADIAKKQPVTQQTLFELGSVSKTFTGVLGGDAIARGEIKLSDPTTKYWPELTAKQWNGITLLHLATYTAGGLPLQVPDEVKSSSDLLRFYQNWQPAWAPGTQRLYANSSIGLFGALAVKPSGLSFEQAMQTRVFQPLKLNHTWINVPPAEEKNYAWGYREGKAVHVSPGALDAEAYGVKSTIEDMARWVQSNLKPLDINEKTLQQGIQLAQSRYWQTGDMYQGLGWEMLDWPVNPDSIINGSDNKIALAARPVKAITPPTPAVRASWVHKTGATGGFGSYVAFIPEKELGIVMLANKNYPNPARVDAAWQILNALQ

Row | SMILES | MIC [1] | Relative Rate of Hydrolysis (benzylpenicillin = 100) [2] | Relative Rate of Hydrolysis (benzylpenicillin = 100) [3] | Relative Rate of Hydrolysis (benzylpenicillin = 100) [4] | Relative Rate of Hydrolysis (benzylpenicillin = 100) [5] | Relative Rate of Hydrolysis (benzylpenicillin = 100) [6] | Relative Rate of Hydrolysis (benzylpenicillin = 100) [7] | Relative Rate of Hydrolysis (benzylpenicillin = 100) [8] | ED50 [9] | ED50 [10, 21] | ED50 [10, 22] | ED50 [10, 23] | ED50 [11] | ED50 [12] | MIC [13] | MIC [14, 24] | MIC [14, 25] | MIC [15] | MIC [16] | percent of strains inhibited [17] | also measured
1 | O=C(Cc1cccs1)N[C@@H]1C(=O)N2C(C(=O)[O-])=C(C[n+]3ccccc3)CS[C@H]12 [Cephaloridine] | 0.63 µg/mL (≈ 1.52 µM) | 7900 | 370 | 2 | 93 | 100 | 50 | < 0.5 | 36 mg/kg | 19 mg/kg | 4 mg/kg | 5.5 mg/kg | 66 mg/kg | 200 mg/kg | 1 µg/mL (≈ 2.41 µM) | > 125 µg/mL | > 125 µg/mL | > 125 µg/mL | 32 µg/mL (≈ 77 µM) | negligible | PD50 /treatment ([12]; mouse, in vivo): > 400 mg/kg; MIC ([18]; A, Inoculum of 10^2 organisms): 63 µg/mL (≈ 152 µM); MIC ([18]; B, Inoculum of 10^6 organisms): > 250 µg/mL; MIC [19, 26]: 4 µg/mL (≈ 9.63 µM); MIC [19, 27]: 16 µg/mL (≈ 38.5 µM); MIC [19, 28]: 8 µg/mL (≈ 19.3 µM); MIC [19, 29]: 16 µg/mL (≈ 38.5 µM); MIC [19, 30]: 8 µg/mL (≈ 19.3 µM); MIC [19, 31]: 32 µg/mL (≈ 77 µM); MIC [19, 32]: 4 µg/mL (≈ 9.63 µM); MIC [19, 33]: 32 µg/mL (≈ 77 µM); MIC [19, 34]: 4 µg/mL (≈ 9.63 µM); MIC [19, 35]: 16 µg/mL (≈ 38.5 µM); MIC [20, 36]: 4 µg/mL (≈ 9.63 µM); MIC [20, 37]: 16 µg/mL (≈ 38.5 µM); MIC [20, 38]: 8 µg/mL (≈ 19.3 µM); MIC [20, 39]: 250 µg/mL (≈ 602 µM); MIC [20, 40]: 8 µg/mL (≈ 19.3 µM); MIC [20, 41]: 16 µg/mL (≈ 38.5 µM)
2 | CC(=O)OCC1=C(C(=O)O)N2C(=O)[C@@H](NC(=O)Cc3cccs3)[C@H]2SC1 [Cephalothin] | 0.5 µg/mL (≈ 1.26 µM) | 2100 | 480 | < 1 | 9 | 8 | 43 | < 0.5 | > 340 mg/kg | 41 mg/kg | 11 mg/kg | 14 mg/kg | 140 mg/kg | > 400 mg/kg | 1 µg/mL (≈ 2.52 µM) | > 125 µg/mL | 63 µg/mL (≈ 159 µM) | > 125 µg/mL | 8 µg/mL (≈ 20.2 µM) | negligible | MIC ([18]; A, Inoculum of 10^2 organisms): 32 µg/mL (≈ 80.7 µM); MIC ([18]; B, Inoculum of 10^6 organisms): > 250 µg/mL; MIC [19, 26]: 8 µg/mL (≈ 20.2 µM); MIC [19, 27]: 16 µg/mL (≈ 40.4 µM); MIC [19, 28]: 4 µg/mL (≈ 10.1 µM); MIC [19, 29]: 32 µg/mL (≈ 80.7 µM); MIC [19, 30]: 16 µg/mL (≈ 40.4 µM); MIC [19, 31]: 32 µg/mL (≈ 80.7 µM); MIC [19, 32]: 8 µg/mL (≈ 20.2 µM); MIC [19, 33]: 32 µg/mL (≈ 80.7 µM); MIC [19, 34]: 8 µg/mL (≈ 20.2 µM); MIC [19, 35]: 32 µg/mL (≈ 80.7 µM); MIC [20, 36]: 1 µg/mL (≈ 2.52 µM); MIC [20, 37]: 4 µg/mL (≈ 10.1 µM); MIC [20, 38]: 8 µg/mL (≈ 20.2 µM); MIC [20, 39]: 125 µg/mL (≈ 315 µM); MIC [20, 40]: 16 µg/mL (≈ 40.4 µM); MIC [20, 41]: 16 µg/mL (≈ 40.4 µM)
